Assays:
Test in all cases: relative viability (nuclei count vs DMSO), 5 days (fraction); higher = more cells survive
[1] = compound: CN(c1ncccc1CNc1nc(Nc2ccc3c(c2)CC(=O)N3)ncc1C(F)(F)F)S(C)(=O)=O + Nc1nc2[nH]cc(CCc3ccc(C(=O)N[C@@H](CCC(=O)O)C(=O)O)cc3)c2c(=O)[nH]1 [Pemetrexed] (partner 0.2 µM)
Procedure, shortened: (§1)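 After 5 days of treatment, lung cancer cells in 1536-well plates were fixed and stained in a single step (final 0.05% Triton X-100, 1% formaldehyde, 1 ug/ml Hoechst) and their nuclei counted on 4× images. Treatment had been applied by pin tool the day after seeding as one drug alone or as a fixed anchor-drug dose with five library-drug doses (not always all listed) in √10 steps. Relative viability is the nuclei count of treated wells divided by that of vehicle wells, and values are medians of duplicate plates.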

[2] = compound: CN(c1ncccc1CNc1nc(Nc2ccc3c(c2)CC(=O)N3)ncc1C(F)(F)F)S(C)(=O)=O + Cc1nc(NC(=O)N2CCC[C@H]2C(N)=O)sc1-c1ccnc(C(C)(C)C(F)(F)F)c1 [Alpelisib] (partner 2 µM)
Procedure, shortened: as §1

[3] = compound: CN(c1ncccc1CNc1nc(Nc2ccc3c(c2)CC(=O)N3)ncc1C(F)(F)F)S(C)(=O)=O + CC(=O)c1c(C)c2cnc(Nc3ccc(N4CCNCC4)cn3)nc2n(C2CCCC2)c1=O [Palbociclib] (partner 0.5 µM)
Procedure, shortened: as §1

[4] = compound: CN(c1ncccc1CNc1nc(Nc2ccc3c(c2)CC(=O)N3)ncc1C(F)(F)F)S(C)(=O)=O + O=C(c1cc(Cc2n[nH]c(=O)c3ccccc23)ccc1F)N1CCN(C(=O)C2CC2)CC1 [Olaparib] (partner 8 µM)
Procedure, shortened: as §1

Cell Line	relative viability ([1]; first compound 0.01 µM)	relative viability ([1]; first compound 0.03162 µM)	relative viability ([1]; first compound 0.1 µM)	relative viability ([1]; first compound 0.3162 µM)	relative viability ([1]; first compound 1 µM)	relative viability ([2]; first compound 0.01 µM)	relative viability ([2]; first compound 0.03162 µM)	relative viability ([2]; first compound 0.1 µM)	relative viability ([2]; first compound 0.3162 µM)	relative viability ([2]; first compound 1 µM)	relative viability ([3]; first compound 0.01 µM)	relative viability ([3]; first compound 0.03162 µM)	relative viability ([3]; first compound 0.1 µM)	relative viability ([3]; first compound 0.3162 µM)	relative viability ([3]; first compound 1 µM)	relative viability ([4]; first compound 0.01 µM)	relative viability ([4]; first compound 0.03162 µM)	relative viability ([4]; first compound 0.1 µM)	relative viability ([4]; first compound 0.3162 µM)	relative viability ([4]; first compound 1 µM)
NCI-H1734	0.421	0.379	0.395	0.421	0.439	0.665	0.778	0.666	0.631	0.641	0.35	0.327	0.345	0.348	0.304	0.586	0.677	0.614	0.594	0.596
NCI-H1755	0.478	0.451	0.426	0.398	0.487	0.904	0.946	0.94	0.82	0.848	0.449	0.473	0.452	0.44	0.434	0.909	0.904	0.83	0.791	0.839
NCI-H1792	0.903	0.995	0.922	0.752	0.867	0.661	0.68	0.654	0.695	0.728	0.627	0.783	0.63	0.637	0.602	0.414	0.386	0.691	0.495	0.386
NCI-H1793	1.05	0.912	0.934	0.919	0.931	0.77	0.765	0.611	0.674	0.659	0.314	0.321	0.328	0.341	0.324	0.88	0.685	0.777	0.948	0.769
NCI-H1915	0.528	0.569	0.455	0.517	0.538	1.07	1.1	1.03	1.05	1.02	0.498	0.532	0.58	0.525	0.509	0.272	0.241	0.262	0.264	0.285
NCI-H1944	0.642	0.612	0.646	0.592	0.613	0.742	0.955	0.805	0.86	0.918	0.346	0.342	0.328	0.322	0.312	0.402	0.421	0.416	0.436	0.42
NCI-H1975	0.296	0.283	0.275	0.296	0.288	0.66	0.592	0.611	0.67	0.59	0.602	0.639	0.712	0.532	0.502	0.799	0.873	0.821	0.832	0.7
NCI-H1993	0.584	0.593	0.538	0.641	0.572	0.739	0.632	0.612	0.663	0.674	0.479	0.64	0.669	0.652	0.597	1.13	0.977	1	1.1	0.92
NCI-H2009	1.03	1	0.923	1.01	0.948	1.12	1.21	1.17	1.17	1.1	0.207	0.179	0.251	0.202	0.191	0.651	0.707	0.684	0.681	0.679
NCI-H2023	0.181	0.241	0.221	0.228	0.214	0.521	0.677	0.668	0.59	0.507	0.382	0.405	0.376	0.339	0.229	0.458	0.476	0.467	0.359	0.407
NCI-H2085	0.917	0.774	0.885	0.953	0.947	0.903	0.904	0.882	0.922	0.812	0.444	0.467	0.443	0.462	0.401	0.79	0.81	0.71	0.759	0.696
NCI-H2087	0.695	0.751	0.685	0.728	0.584	1.14	1.18	1.11	1.12	1.19	0.23	0.277	0.258	0.252	0.279	0.634	0.639	0.614	0.464	0.668
NCI-H2126	0.7	0.718	0.615	0.697	0.632	0.717	0.739	0.742	0.743	0.641	0.358	0.351	0.308	0.352	0.306	0.879	1.01	0.865	0.867	0.795
NCI-H2170	0.305	0.268	0.269	0.266	0.274	0.762	0.874	0.862	–	0.786	0.422	0.434	0.39	0.382	0.388	0.684	0.652	0.672	0.604	0.521
NCI-H2228	0.368	0.343	0.366	0.313	0.355	0.634	0.766	0.857	0.633	0.701	0.836	0.878	0.881	0.749	0.6	0.619	1.01	0.665	0.766	0.539
NCI-H2347	0.474	0.434	0.403	0.44	0.399	1.06	0.973	0.893	0.972	0.817	0.434	0.389	0.426	0.354	0.377	0.598	0.546	0.525	0.515	0.443

Source: the supplement of paper PMC10307832
